In publication PMC7026080, “Phenotypic high-throughput screening platform identifies novel chemotypes for necroptosis inhibition” (Cell Death Discovery, 2020):

How the values were obtained:
[1] = tested on: necroptosis proteins in liver tissue; experiment: p-MLKL/MLKL and p-RIPK3/RIPK3 immunoblot in liver tissue of SIRS mice; type: in vivo, mouse; details: compared with mTNF-α alone; 5 mg/kg i.v.
Procedure: Representative blots and quantification of p-RIPK3/RIPK3 and p-MLKL/MLKL ratios in fold-change from control. Blots were normalized to endogenous β-actin.
Further details are provided as Supplementary Information.
Animal studies, injections and monitoring. Male C57BL/6J mice with 18-26 g (Charles River Laboratories International, Inc., Wilmington, MA, USA) were used at the age of 8-14 weeks. Five to seven animals were included in each experimental group. All animal experiments were carried out with the permission of local animal ethical committee in accordance with the EU Directive (2010/63/EU), Portuguese laws (DL113/2013, 2880/2015, 260/2016) and all relevant legislations. Animals received humane care in a temperature-controlled environment with a 12 h light-dark cycle and ad libitum access to pelleted chow and water, complying with the Institute’s guidelines, and as outlined in the “Guide for the Care and Use of Laboratory Animals” prepared by the National Academy of Sciences and published by the National Institutes of Health (NIH publication 86-23 revised 1985). […] Nec-1 was diluted as follows (v/v): 48% PBS 1X, 17% DMSO and 35% PEG 400. […] All injections were administered intravenously (i.v.) in 100 µL volume each.

MDR1 = experiment: MDCK-MDR1 cell-based permeability assay; type: in vitro ADME; details: dog
BV2 cells = experiment: Necroptosis protection in BV2 cells (Z-VAD-FMK), 24 h; type: cell-based, murine; details: compounds at 10 μM, 25 μM Z-VAD-FMK
Procedure: (§1) Necroptosis inhibition properties were further examined using two additional cellular models of regulated necrosis. First, in human adenocarcinoma HT29 cells, and then in immortalized murine microglial BV2 cells, where we co-incubated a mixture of human or murine TNF-α, Smac mimetic […], pan-caspase inhibitor Z-VAD-FMK[29] or Z-VAD-FMK alone, and tested compounds at 10 μM for 24 h. […] In parallel, preliminary data for compound liver toxicity was extrapolated using HepG2 cells.
(§2) Fig. 3 Secondary-stage cascade for hit validation and compound refinement for further studies. a Compound ability to prevent necroptosis execution in HT29 cells co-incubated with 20 ng/mL hTNF-α (T) together with 250 nM Smac mimetic BV6 (S) and […] Z-VAD-FMK (Z), and selected compounds at 10 μM for 24 h. b Selected compound ability to prevent necroptosis execution in BV2 cells co-incubated with 25 μM Z-VAD-FMK (Z) and compounds at 10 μM for 24 h. c Selected compound toxicity evaluation in HepG2 cells incubated with test compounds at 100 and 50 μM for 24 h. Data represent mean values ± SEM of three independent experiments normalized to untreated control. Cell viability was assessed using a luminescence-based readout for AK release and ATP production, and a colorimetric-based readout for LDH release and MTS metabolism. ns, not significant; *p < 0.05, ***p < 0.001.
(§3) Cell treatments and viability assays. […]

HT29 cells = experiment: Necroptosis protection in HT29 cells (TNF-α + Smac mimetic + Z-VAD-FMK), 24 h; type: cell-based, human; details: compounds at 10 μM, hTNF-α + Smac mimetic + Z-VAD-FMK
Procedure: as §1, §2, §3

[2] = Rat hepatic clearance (in vitro); type: in vitro ADME

Structure (SMILES)	p-MLKL/MLKL ratio in mouse liver tissue [1]	p-RIPK3/RIPK3 ratio in mouse liver tissue [1]	efflux ratio (MDR1)	Protection from necroptosis execution in BV2 cells (BV2 cells)	Protection from necroptosis in HT29 cells (membrane integrity by AK and LDH release, ATP levels) (HT29 cells)	Rat hepatic clearance (in vitro) rate [2]
CN1C(=O)C(Cc2c[nH]c3ccccc23)NC1=S (stereo not drawn) [Nec-1, necrostatin-1]	decreased	decreased	0.45	complete protection against necroptosis execution	completely rescued membrane integrity and ensured metabolic cell viability	
O=C(c1cnn(Cc2ccccc2)c1)N1CCOc2ccccc2C1 [SN-6109]						87 μL/min/1E6
